In patent US8415469B2, “Compounds and methods for kinase modulation, and indications therefor” (Plexxikon Inc., priority 2005, dated 2013):

Tests used:
Assay type in all cases: biochemical
Src = biological target: T1, Src (Homo sapiens, UniProt P12931); experiment: AlphaScreen kinase assay, Src; settings: read-out: IC50, activity toward kinase Src
T1 construct: P1144. pET-N6 BI-PTP SRC V86-L536-X; made in house

Akt3 = Akt3 (Homo sapiens, UniProt Q9Y243); experiment: AlphaScreen kinase assay, Akt3; settings: read-out: IC50, activity toward kinase Akt3
Text: AlphaScreen assay was used to screen additional kinases. The assay is similarly dependent on the phosphorylation of a peptide substrate. In this assay, an antibody that recognizes phosphorylated substrate is bound to an acceptor bead. The peptide substrate is attached to biotin, which binds to a donor head that contains streptavidin. Thus phosphorylated substrate is bound by antibody and streptavidin, bringing the donor and acceptor heads into close proximity when kinase is not inhibited. The donor produces singlet oxygen which results in emission from the acceptor when they are in close proximity. Conversely, when kinase is inhibited, the donor and acceptor beads are not associated and the emission from the acceptor is reduced.
AlphaScreen assays were done using compounds dissolved in DMSO to a concentration of 20 mM. The compounds were diluted accordingly to the desired final concentrations in each sample well, using 1:3 serial dilution for a total of 8 concentration points.

B-Raf = biological target: T2, B-Raf (Homo sapiens, UniProt P15056); experiment: AlphaScreen kinase assay, B-Raf; settings: read-out: IC50, activity toward kinase B-Raf
T2 construct: purchased Upstate Biotechnology

Jnk1 = biological target: T3, Jnk1 (Homo sapiens, UniProt P45983); experiment: AlphaScreen kinase assay, Jnk1; settings: read-out: IC50, activity toward kinase Jnk1
T3 construct: purchased Upstate Biotechnology
T3 sequence (P45983 whole entry): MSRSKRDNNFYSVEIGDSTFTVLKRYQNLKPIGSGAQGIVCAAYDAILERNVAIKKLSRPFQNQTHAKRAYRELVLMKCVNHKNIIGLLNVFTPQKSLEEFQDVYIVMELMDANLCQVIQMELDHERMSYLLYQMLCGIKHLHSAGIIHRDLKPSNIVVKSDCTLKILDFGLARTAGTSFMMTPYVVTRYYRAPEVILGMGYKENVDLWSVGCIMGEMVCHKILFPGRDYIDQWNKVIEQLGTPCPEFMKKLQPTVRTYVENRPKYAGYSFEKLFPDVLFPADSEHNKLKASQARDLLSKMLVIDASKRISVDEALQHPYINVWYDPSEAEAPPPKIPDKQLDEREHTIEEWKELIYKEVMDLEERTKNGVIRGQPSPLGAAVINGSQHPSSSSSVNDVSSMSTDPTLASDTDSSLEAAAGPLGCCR

B-Raf V600E = biological target: T4, B-Raf V600E (Homo sapiens, UniProt P15056, V600E); experiment: AlphaScreen kinase assay, B-Raf V600E; settings: read-out: IC50, activity toward kinase B-Raf V600E
T4 construct: P4254. pFastBacBD-CDC37 BRAF D437-K722-X, V600E; His6 with pFastBac HT leader (TEV site) (N); made in house; host or cells: Sf9 (baculovirus; chaperone CDC37 co-expressed)
T4 sequence (P15056 with tags, fused parts or gaps V600E): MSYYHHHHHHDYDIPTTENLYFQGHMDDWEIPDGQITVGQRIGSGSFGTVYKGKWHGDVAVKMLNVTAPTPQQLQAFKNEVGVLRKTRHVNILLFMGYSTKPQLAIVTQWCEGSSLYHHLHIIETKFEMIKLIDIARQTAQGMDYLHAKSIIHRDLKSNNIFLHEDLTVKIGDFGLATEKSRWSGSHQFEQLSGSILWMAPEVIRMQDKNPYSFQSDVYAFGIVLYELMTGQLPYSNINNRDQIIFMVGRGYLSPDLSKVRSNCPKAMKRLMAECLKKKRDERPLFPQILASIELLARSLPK

Btk = biological target: T5, Btk (Homo sapiens, UniProt Q06187); experiment: Z'-Lyte FRET kinase assay (Invitrogen), Btk; settings: read-out: IC50, activity toward kinase Btk
T5 construct: purchased Invitrogen (assay run by Invitrogen)

FGFR1 = biological target: T6, FGFR1 (Homo sapiens, UniProt P11362, C488A/C584S); experiment: AlphaScreen kinase assay, FGFR1; settings: read-out: IC50, activity toward kinase FGFR
T6 construct: P1351.pET N6 BI-PTP FGFR A458-E765-X C488A, C584S; made in house; host or cells: E. coli (PTP1B co-expressed)
T6 sequence (P11362 458-765 C488A/C584S): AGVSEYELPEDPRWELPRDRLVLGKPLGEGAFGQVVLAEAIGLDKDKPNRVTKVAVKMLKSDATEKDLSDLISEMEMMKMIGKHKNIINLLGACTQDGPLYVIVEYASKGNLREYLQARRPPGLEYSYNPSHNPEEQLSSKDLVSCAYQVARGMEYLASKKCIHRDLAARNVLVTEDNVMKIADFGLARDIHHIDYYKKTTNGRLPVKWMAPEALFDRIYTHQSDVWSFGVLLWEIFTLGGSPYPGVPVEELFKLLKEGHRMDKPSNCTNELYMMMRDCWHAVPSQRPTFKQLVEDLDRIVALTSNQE

Fms = biological target: T7, Fms (Homo sapiens, UniProt P07333); experiment: AlphaScreen kinase assay, Fms; settings: read-out: IC50, activity toward kinase Fms
T7 construct: purchased Upstate Biotechnology
T7 sequence (P07333 20-972): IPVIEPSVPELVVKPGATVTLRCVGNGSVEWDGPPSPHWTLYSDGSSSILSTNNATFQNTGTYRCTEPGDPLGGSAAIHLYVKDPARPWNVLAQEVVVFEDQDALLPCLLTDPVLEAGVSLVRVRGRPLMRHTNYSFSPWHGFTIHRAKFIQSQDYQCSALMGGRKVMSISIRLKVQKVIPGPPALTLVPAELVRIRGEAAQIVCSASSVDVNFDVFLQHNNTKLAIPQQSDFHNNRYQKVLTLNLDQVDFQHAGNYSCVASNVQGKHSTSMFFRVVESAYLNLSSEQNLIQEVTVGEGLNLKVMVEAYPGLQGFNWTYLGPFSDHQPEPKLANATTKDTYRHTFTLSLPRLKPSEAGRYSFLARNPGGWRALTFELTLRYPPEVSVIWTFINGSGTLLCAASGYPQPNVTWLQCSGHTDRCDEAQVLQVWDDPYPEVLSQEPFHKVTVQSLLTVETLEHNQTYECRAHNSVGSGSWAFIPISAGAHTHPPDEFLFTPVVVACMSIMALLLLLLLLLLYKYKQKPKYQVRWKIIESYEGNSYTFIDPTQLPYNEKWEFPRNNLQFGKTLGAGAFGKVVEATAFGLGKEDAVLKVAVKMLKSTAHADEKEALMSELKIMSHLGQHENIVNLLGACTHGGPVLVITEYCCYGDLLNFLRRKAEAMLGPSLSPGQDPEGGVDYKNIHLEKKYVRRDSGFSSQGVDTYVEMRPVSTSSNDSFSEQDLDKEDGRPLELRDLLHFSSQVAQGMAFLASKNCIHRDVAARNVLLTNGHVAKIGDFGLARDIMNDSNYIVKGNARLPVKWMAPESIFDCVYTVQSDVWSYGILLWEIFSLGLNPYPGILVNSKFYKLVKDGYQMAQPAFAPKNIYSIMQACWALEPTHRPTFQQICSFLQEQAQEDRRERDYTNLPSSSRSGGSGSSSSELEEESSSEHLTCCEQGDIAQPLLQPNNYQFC

Fak = biological target: T8, Fak (Homo sapiens, UniProt Q05397); experiment: AlphaScreen kinase assay, Fak; settings: read-out: IC50, activity toward kinase Fak
T8 construct: P1358.pFastBacHtb FAK S411-Q686-X; His6 with pFastBacHTb leader (TEV site) (N); made in house; host or cells: Sf9 (baculovirus)

Flt1 = biological target: T9, Flt1 (Homo sapiens, UniProt P17948); experiment: AlphaScreen kinase assay, Flt1; settings: read-out: IC50, activity toward kinase Flt1
T9 construct: P1826.pETN6 BI-PTP FLT1 M799-D1165-X WT; His6 (N); made in house; host or cells: E. coli (PTP1B co-expressed)
T9 sequence (P17948 with tags, fused parts or gaps): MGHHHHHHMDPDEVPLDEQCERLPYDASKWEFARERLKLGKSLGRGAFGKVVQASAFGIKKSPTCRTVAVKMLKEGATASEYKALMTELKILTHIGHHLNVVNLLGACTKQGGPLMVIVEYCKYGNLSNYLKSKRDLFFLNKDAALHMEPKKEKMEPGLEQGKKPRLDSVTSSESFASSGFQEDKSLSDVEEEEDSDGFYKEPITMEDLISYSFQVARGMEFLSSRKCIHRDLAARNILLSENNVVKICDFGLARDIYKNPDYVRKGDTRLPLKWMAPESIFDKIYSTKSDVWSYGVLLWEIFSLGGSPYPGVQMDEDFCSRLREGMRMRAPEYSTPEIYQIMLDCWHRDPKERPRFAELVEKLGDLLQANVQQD

Pyk2 = biological target: T10, Pyk2 (Homo sapiens, UniProt Q14289); experiment: AlphaScreen kinase assay, Pyk2; settings: read-out: IC50, activity toward kinase Pyk2
T10 construct: purchased Upstate Biotechnology
T10 sequence (Q14289 whole entry): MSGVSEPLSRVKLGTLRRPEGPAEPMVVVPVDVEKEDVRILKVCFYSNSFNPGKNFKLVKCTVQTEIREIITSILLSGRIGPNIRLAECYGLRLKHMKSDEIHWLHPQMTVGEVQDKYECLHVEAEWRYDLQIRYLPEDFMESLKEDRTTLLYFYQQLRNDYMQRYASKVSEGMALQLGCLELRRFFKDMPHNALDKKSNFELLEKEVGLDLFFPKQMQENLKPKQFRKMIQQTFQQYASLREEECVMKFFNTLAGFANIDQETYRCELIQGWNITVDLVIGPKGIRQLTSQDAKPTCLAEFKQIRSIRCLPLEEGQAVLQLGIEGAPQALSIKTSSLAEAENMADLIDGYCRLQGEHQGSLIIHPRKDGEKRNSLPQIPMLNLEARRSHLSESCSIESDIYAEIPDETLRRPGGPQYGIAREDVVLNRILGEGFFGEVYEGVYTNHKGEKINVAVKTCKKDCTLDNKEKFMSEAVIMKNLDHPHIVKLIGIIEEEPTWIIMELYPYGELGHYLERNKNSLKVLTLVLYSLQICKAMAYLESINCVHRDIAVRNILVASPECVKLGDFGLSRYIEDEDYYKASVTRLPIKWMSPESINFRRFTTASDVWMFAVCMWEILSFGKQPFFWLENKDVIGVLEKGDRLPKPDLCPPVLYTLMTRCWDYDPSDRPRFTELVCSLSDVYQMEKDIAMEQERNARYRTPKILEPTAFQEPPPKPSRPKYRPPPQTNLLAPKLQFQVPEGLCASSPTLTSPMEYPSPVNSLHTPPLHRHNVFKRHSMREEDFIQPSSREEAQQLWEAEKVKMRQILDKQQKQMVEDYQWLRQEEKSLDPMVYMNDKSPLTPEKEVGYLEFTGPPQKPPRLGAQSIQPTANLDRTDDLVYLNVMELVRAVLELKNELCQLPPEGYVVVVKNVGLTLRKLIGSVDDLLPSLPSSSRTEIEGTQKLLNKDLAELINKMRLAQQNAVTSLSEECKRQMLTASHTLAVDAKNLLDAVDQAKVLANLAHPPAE

c-Raf-1 = biological target: T11, c-Raf-1 (Homo sapiens, UniProt P04049); experiment: AlphaScreen kinase assay, c-Raf-1; settings: read-out: IC50, activity toward kinase c-Raf-1
T11 construct: purchased Upstate Biotechnology
T11 sequence (P04049 whole entry): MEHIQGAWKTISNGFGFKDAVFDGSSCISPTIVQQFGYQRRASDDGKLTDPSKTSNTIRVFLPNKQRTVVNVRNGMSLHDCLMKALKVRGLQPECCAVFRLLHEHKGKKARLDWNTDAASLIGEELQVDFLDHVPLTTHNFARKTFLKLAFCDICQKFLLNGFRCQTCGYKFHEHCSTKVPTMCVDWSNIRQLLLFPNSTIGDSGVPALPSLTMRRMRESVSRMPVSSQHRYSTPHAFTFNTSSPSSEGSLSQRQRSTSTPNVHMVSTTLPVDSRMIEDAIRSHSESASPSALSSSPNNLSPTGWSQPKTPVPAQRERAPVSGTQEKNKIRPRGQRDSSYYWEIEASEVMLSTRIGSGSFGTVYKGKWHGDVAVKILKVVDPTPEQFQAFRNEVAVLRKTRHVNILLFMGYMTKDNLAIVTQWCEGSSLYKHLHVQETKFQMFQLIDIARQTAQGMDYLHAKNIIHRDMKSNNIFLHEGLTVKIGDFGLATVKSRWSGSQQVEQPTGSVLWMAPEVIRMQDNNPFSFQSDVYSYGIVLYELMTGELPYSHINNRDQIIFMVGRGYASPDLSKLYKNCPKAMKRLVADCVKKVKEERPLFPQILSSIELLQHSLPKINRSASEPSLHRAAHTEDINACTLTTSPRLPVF

Kit = biological target: T12, Kit (Homo sapiens, UniProt P10721); experiment: AlphaScreen kinase assay, Kit; settings: read-out: IC50, activity toward kinase Kit
T12 construct: P1332.N6 BI PTP KIT M552-K948-X COD; His6 (N); made in house; host or cells: E. coli (PTP1B co-expressed)
T12 sequence (P10721 with tags, fused parts or gaps): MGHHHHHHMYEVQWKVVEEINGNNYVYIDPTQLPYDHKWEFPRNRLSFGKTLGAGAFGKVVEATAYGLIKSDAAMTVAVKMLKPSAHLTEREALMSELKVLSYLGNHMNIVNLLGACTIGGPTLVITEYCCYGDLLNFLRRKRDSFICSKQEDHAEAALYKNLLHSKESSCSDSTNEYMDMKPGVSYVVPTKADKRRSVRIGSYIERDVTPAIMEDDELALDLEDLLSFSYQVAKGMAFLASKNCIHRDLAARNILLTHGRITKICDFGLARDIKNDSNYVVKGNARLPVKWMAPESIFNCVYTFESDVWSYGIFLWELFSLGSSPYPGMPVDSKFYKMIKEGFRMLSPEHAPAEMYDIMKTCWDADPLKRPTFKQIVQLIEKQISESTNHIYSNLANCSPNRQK

MAP4K4 = MAP4K4 (Homo sapiens, UniProt O95819); experiment: AlphaScreen kinase assay, MAP4K4; settings: read-out: IC50, activity toward kinase MAP4K4
Jnk3 = biological target: T13, Jnk3 (Homo sapiens, UniProt P53779); experiment: AlphaScreen kinase assay, Jnk3; settings: read-out: IC50, activity toward kinase Jnk3
T13 construct: purchased Upstate Biotechnology
T13 sequence (P53779 whole entry): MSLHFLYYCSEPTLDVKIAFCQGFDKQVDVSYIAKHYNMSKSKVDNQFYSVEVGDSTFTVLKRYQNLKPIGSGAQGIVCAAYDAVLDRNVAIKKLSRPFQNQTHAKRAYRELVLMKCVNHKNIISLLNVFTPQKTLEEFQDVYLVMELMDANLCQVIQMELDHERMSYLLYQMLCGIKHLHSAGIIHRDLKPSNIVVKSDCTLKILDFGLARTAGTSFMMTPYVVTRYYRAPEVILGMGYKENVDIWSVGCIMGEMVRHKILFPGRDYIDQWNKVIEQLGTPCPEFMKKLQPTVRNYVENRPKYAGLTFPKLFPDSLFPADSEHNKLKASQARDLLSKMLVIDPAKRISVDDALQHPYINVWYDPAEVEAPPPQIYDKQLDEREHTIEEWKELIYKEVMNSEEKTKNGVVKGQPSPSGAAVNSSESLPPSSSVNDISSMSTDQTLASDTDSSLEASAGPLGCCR

Ret = biological target: T14, Ret (Homo sapiens, UniProt P07949); experiment: AlphaScreen kinase assay, Ret; settings: read-out: IC50, activity toward kinase Ret
T14 construct: P1378.pET-SF BI-PTP RET H661-R1012 HIS; made in house
T14 sequence (P07949 with tags, fused parts or gaps): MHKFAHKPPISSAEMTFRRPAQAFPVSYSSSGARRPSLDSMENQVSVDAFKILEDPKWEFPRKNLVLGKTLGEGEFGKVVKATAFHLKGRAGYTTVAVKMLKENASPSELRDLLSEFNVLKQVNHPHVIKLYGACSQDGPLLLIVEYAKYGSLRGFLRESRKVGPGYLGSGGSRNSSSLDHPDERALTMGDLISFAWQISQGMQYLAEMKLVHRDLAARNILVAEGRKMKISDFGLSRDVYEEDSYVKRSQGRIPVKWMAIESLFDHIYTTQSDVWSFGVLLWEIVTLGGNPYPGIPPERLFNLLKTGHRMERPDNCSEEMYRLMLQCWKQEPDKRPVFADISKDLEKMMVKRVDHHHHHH

T1 sequence (P12931 with tags, fused parts or gaps): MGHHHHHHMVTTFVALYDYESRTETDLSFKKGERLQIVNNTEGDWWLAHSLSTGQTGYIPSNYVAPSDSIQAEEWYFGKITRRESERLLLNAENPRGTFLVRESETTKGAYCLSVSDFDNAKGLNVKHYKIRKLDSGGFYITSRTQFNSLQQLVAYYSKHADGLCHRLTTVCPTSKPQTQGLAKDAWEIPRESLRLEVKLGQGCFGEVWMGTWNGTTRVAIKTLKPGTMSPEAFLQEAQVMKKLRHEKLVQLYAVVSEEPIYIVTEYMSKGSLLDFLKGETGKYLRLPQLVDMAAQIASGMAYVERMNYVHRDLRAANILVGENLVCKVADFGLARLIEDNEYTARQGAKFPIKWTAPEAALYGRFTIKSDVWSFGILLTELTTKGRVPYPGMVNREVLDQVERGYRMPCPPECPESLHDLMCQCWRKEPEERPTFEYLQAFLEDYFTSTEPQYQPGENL

Structure (SMILES) | IC50 (Akt3) | IC50 (B-Raf) | IC50 (B-Raf V600E) | IC50 (FGFR1) | IC50 (Flt1) | IC50 (c-Raf-1) | IC50 (Kit) | also measured
NC(=O)c1cccc(-c2cnc3[nH]cc(C(=O)c4ccc(O)cc4F)c3c2)c1 [Compound P-1459] | ≤ 10 µM | ≤ 10 µM | ≤ 10 µM | ≤ 10 µM |  |  |  | IC50 (Src): ≤ 10 µM; IC50 (Jnk1): ≤ 10 µM; IC50 (Btk): ≤ 10 µM; IC50 (Fms): ≤ 10 µM; IC50 (Fak): ≤ 10 µM
CCCS(=O)(=O)Nc1ccc(F)c(Cc2c[nH]c3ncc(C(C)C)cc23)c1F [Compound P-1288] | ≤ 10 µM | ≤ 10 µM | ≤ 10 µM | ≤ 10 µM |  | ≤ 10 µM |  | IC50 (Src): ≤ 10 µM; IC50 (Pyk2): ≤ 10 µM; IC50 (Jnk1): ≤ 10 µM; IC50 (Fak): ≤ 10 µM
O=C(c1c(F)ccc(NS(=O)(=O)N2CCCCC2)c1F)c1c[nH]c2ncccc12 [Compound P-0952, Piperidine-1-sulfonic acid [2,4-difluoro-3-(1H-pyrrolo[2,3-b]pyridine-3-carbonyl)-phenyl]-amide] | ≤ 10 µM | ≤ 10 µM | ≤ 10 µM | ≤ 10 µM |  | ≤ 10 µM | ≤ 10 µM | IC50 (Src): ≤ 10 µM; IC50 (Fms): ≤ 10 µM
Fc1cccc(Nc2ccnc3[nH]ccc23)c1 [Compound P-1047] | ≤ 10 µM |  |  |  |  | ≤ 10 µM |  | 
CCCc1ccc(Nc2cnc3[nH]ccc3c2)cc1 [Compound P-1043] | ≤ 10 µM |  | ≤ 10 µM |  |  |  |  | 
COc1ccc(S(=O)(=O)Nc2ccc(F)c(C(=O)c3c[nH]c4ncccc34)c2F)cc1 [Compound P-0958, N-[2,4-Difluoro-3-(1H-pyrrolo[2,3-b]pyridine-3-carbonyl)-phenyl]-4-methoxy-benzenesulfonamide] | ≤ 10 µM | ≤ 10 µM | ≤ 10 µM | ≤ 10 µM | ≤ 10 µM | ≤ 10 µM | ≤ 10 µM | IC50 (Src): ≤ 10 µM; IC50 (Jnk1): ≤ 10 µM; IC50 (MAP4K4): ≤ 10 µM; IC50 (Fms): ≤ 10 µM
CCOC(c1ccc(N(Cc2ccc(Cl)cc2)C(=O)OC(C)(C)C)nc1)c1c[nH]c2ncccc12 (stereo not drawn) [Compound P-1139] | ≤ 10 µM |  | ≤ 10 µM |  |  |  |  | 
COc1cccc(C(=O)c2c[nH]c3nccc(-c4cccc(C(N)=O)c4)c23)c1 [Compound P-0329] | ≤ 10 µM |  |  | ≤ 10 µM |  |  |  | IC50 (Ret): ≤ 10 µM
Clc1cccc(Nc2ccnc3[nH]ccc23)c1 [Compound P-0924] | ≤ 10 µM | ≤ 10 µM |  |  |  | ≤ 10 µM | ≤ 10 µM | IC50 (Pyk2): ≤ 10 µM
COc1ccc(-c2c[nH]c3ncccc23)cc1OC1CCCC1 [Compound P-0573] | ≤ 10 µM |  | ≤ 10 µM |  |  |  |  | IC50 (MAP4K4): ≤ 10 µM
CCN(CC)c1ccc(Nc2ccnc3[nH]ccc23)cc1 [Compound P-0866] | ≤ 10 µM | ≤ 10 µM | ≤ 10 µM |  | ≤ 10 µM | ≤ 10 µM | ≤ 10 µM | IC50 (Src): ≤ 10 µM; IC50 (Pyk2): ≤ 10 µM
CN(C)c1cccc(Nc2ccnc3[nH]ccc23)c1 [Compound P-0861] | ≤ 10 µM | ≤ 10 µM | ≤ 10 µM |  |  | ≤ 10 µM | ≤ 10 µM | IC50 (Pyk2): ≤ 10 µM

Continued, in another order:

IC50 (Akt3) | IC50 (B-Raf) | IC50 (B-Raf V600E) | IC50 (FGFR1) | IC50 (Flt1) | IC50 (c-Raf-1) | IC50 (Kit) | Structure (SMILES) | also measured
≤ 10 µM |  |  |  | ≤ 10 µM |  |  | O=C(NCc1ccccc1)c1ccc(-c2c[nH]c3ncccc23)cc1 [Compound P-0278] | 
≤ 10 µM | ≤ 10 µM |  | ≤ 10 µM | ≤ 10 µM | ≤ 10 µM |  | CC(=O)c1cccc(Nc2ccnc3[nH]ccc23)c1 [Compound P-1027] | 
≤ 10 µM |  | ≤ 10 µM | ≤ 10 µM | ≤ 10 µM |  | ≤ 10 µM | CCOc1ccc(Nc2cnc3[nH]ccc3c2)cc1 [Compound P-1018] | IC50 (Pyk2): ≤ 10 µM; IC50 (Jnk3): ≤ 10 µM
≤ 10 µM | ≤ 10 µM |  |  |  | ≤ 10 µM | ≤ 10 µM | Clc1ccc(Nc2ccnc3[nH]ccc23)cc1 [Compound P-0978] | IC50 (Pyk2): ≤ 10 µM
≤ 10 µM |  |  |  | ≤ 10 µM |  |  | c1cc(Nc2ccc(-c3cnco3)cc2)c2cc[nH]c2n1 [Compound P-1147] | 
≤ 10 µM |  | ≤ 10 µM | ≤ 10 µM | ≤ 10 µM |  | ≤ 10 µM | COc1ccc(Nc2cnc3[nH]ccc3c2)cc1Cl [Compound P-1021] | IC50 (Src): ≤ 10 µM; IC50 (Jnk1): ≤ 10 µM; IC50 (Jnk3): ≤ 10 µM
≤ 10 µM | ≤ 10 µM | ≤ 10 µM |  |  | ≤ 10 µM |  | COC(c1ccc(NCc2ccc(Cl)cc2)nc1)c1c[nH]c2ncccc12 (stereo not drawn) [Compound P-0307] | IC50 (Ret): ≤ 10 µM
≤ 10 µM |  |  |  |  | ≤ 10 µM |  | CN(C)c1ccc(Nc2ccnc3[nH]ccc23)cc1 [Compound P-0890] | 
≤ 10 µM |  | ≤ 10 µM |  |  |  |  | c1cc2cc(Nc3ccc4c(c3)OCCO4)cnc2[nH]1 [Compound P-1022] | IC50 (Jnk3): ≤ 10 µM
≤ 10 µM |  |  |  |  | ≤ 10 µM |  | Fc1ccc(Nc2ccnc3[nH]ccc23)cc1 [Compound P-1145] | 
≤ 10 µM |  | ≤ 10 µM |  | ≤ 10 µM |  | ≤ 10 µM | Clc1ccc(Nc2cnc3[nH]ccc3c2)cc1 [Compound P-1082] | IC50 (Jnk3): ≤ 10 µM
≤ 10 µM |  |  |  |  |  |  | c1cc(Nc2ccc3[nH]ccc3c2)c2cc[nH]c2n1 [Compound P-0940] | 
≤ 10 µM |  | ≤ 10 µM |  | ≤ 10 µM |  | ≤ 10 µM | CCCOc1ccc(Nc2cnc3[nH]ccc3c2)cc1 [Compound P-1010] | IC50 (Src): ≤ 10 µM; IC50 (Pyk2): ≤ 10 µM; IC50 (Jnk3): ≤ 10 µM
≤ 10 µM |  |  |  |  |  |  | COc1ccc(Nc2cnc3[nH]ccc3c2)cc1 [Compound P-1095] | 
